Data reported in patent US20060134195A1, “Mannose-based fast dissolving tablets” (priority 2002, published 2006).
“And” between values parts separate entries of the source, which are not always exact repeats. Equal values may be shown once. Read-outs that look alike come from different tables or passages of the source.

Legend:
[1] = Tablet strength graded 1-5 by hand and by dropping the tablet; type: physicochemical; design: key: strength grade on a 1-5 scale
Protocol: (§1) A variety of candidate materials were used to make compressed tablets, and the tablet properties, such as strength and disintegration time, were examined. Particles of each material were compressed under different pressure by a Carver press. The hardness of the tablet was tested by hand for initial qualitative measurement and also by dropping the tablet from a certain height onto the laboratory bench top or to the floor. The tablet strength was graded by assigning a number ranging from 1-5. […] Each tablet was placed into 5 mL water and observed for 30 seconds to see if it disintegrated and dissolved in that time period.

[2] = Tablet placed into 5 mL water and observed for 30 seconds for disintegration and dissolution; type: physicochemical
Protocol: as §1

[3] = compression pressure 35.1 MPa, 5 mL water, 30 seconds
[4] = compression pressure 105 MPa, 5 mL water, 30 seconds
[5] = compression pressure 70.2 MPa, 5 mL water, 30 seconds
[6] = summary of the materials survey, pressure not stated

CC(=O)Oc1ccccc1C(=O)O [Aspirin, reference compound]
Tablet Strength ([1]; compression pressure 35.1 MPa): 2 | Tablet Strength ([1]; compression pressure 70.2 MPa): 3 | Tablet Strength ([1]; compression pressure 105 MPa): 4

OC[C@H]1O[C@@H]2O[C@H]3[C@H](O)[C@@H](O)[C@@H](O[C@H]4[C@H](O)[C@@H](O)[C@@H](O[C@H]5[C@H](O)[C@@H](O)[C@@H](O[C@H]6[C@H](O)[C@@H](O)[C@@H](O[C@H]7[C@H](O)[C@@H](O)[C@@H](O[C@H]8[C@H](O)[C@@H](O)[C@@H](O[C@H]1[C@H](O)[C@H]2O)O[C@@H]8CO)O[C@@H]7CO)O[C@@H]6CO)O[C@@H]5CO)O[C@@H]4CO)O[C@@H]3CO [Beta-Cyclodextrin]
Tablet Strength ([1]; compression pressure 35.1 MPa): 4 | Tablet Strength ([1]; compression pressure 105 MPa): 4 | Disintegration Characteristics [2, 3]: No disintegration. | Disintegration Characteristics [2, 4]: No disintegration.

Cn1c(=O)c2c(ncn2C)n(C)c1=O [Caffeine, reference compound]
Tablet Strength ([1]; compression pressure 35.1 MPa): 3 | Tablet Strength ([1]; compression pressure 70.2 MPa): 4 | Disintegration Characteristics [2, 5]: Breaking into particles after 20 sec.

CC(=O)[O-].CC(=O)[O-].[Ca+2] [Calcium Acetate]
Tablet Strength [1]: 4 | Disintegration Characteristics [2]: No disintegration.

O=C([O-])[O-].[Ca+2] [Calcium Carbonate]
Tablet Strength [1]: 2 | Disintegration (screening summary) [2]: fast disintegration

[Ca+2].[Cl-].[Cl-] [Calcium Chloride]
Tablet Strength [1]: 4

O=P([O-])(O)O.O=P([O-])(O)O.[Ca+2] [Calcium Phosphate, Monobasic]
Tablet Strength ([1]; compression pressure 105 MPa): 3

O=P([O-])([O-])O.[Ca+2] [DITAB, Calcium Phosphate, Dibasic]
Tablet Strength ([1]; compression pressure 70.2 MPa): 4 | Disintegration (screening summary) [2, 6]: fast disintegration

N[C@@H](CCC(=O)O)C(=O)O [Glutamic acid]
Tablet Strength ([1]; compression pressure 105 MPa): 3 | Disintegration (screening summary) [2, 6]: fast disintegration

NCC(=O)O [Glycine]
Tablet Strength ([1]; compression pressure 105 MPa): 2 | Disintegration (screening summary) [2, 6]: fast disintegration

CC(C)Cc1ccc(C(C)C(=O)O)cc1 (stereo not shown) [Ibuprofen, reference compound]
Tablet Strength ([1]; compression pressure 70.2 MPa): 3

O.OC[C@H]1O[C@@H](O[C@H]2[C@H](O)[C@@H](O)C(O)O[C@@H]2CO)[C@H](O)[C@@H](O)[C@H]1O (stereo partly shown) [Lactose monohydrate]
Tablet Strength ([1]; compression pressure 70.2 MPa): 3

OC[C@H]1O[C@H](O[C@H]2[C@H](O)[C@@H](O)[C@H](O)O[C@@H]2CO)[C@H](O)[C@@H](O)[C@@H]1O [Maltose]
Tablet Strength ([1]; compression pressure 70.2 MPa): 3 | Disintegration Characteristics [2, 5]: Total disintegration of the entire tablet. | Disintegration (screening summary) [2, 6]: fast disintegration

OC[C@@H](O)[C@@H](O)[C@H](O)[C@H](O)CO [Mannitol]
Tablet Strength ([1]; compression pressure 70.2 MPa): 2

O=C(O)c1ccccc1O [Salicylic Acid]
Tablet Strength ([1]; compression pressure 35.1 MPa): 1 | Tablet Strength ([1]; compression pressure 70.2 MPa): 2 | Tablet Strength ([1]; compression pressure 105 MPa): 2 | Disintegration Characteristics [2, 5]: No disintegration. | Disintegration Characteristics [2, 4]: No disintegration.

O=C([O-])[O-].[Na+].[Na+] [Sodium Carbonate]
Tablet Strength [1]: 4 and 3 | Disintegration Characteristics [2]: No disintegration.

[Cl-].[Na+] [Sodium Chloride]
Tablet Strength ([1]; compression pressure 70.2 MPa): 2 | Tablet Strength ([1]; compression pressure 105 MPa): 2 | Disintegration Characteristics [2, 5]: No disintegration. | Disintegration Characteristics [2, 4]: No disintegration.

O=C1NS(=O)(=O)c2ccccc21.[Na] [Sodium Saccharin]
Tablet Strength ([1]; compression pressure 35.1 MPa): 1 | Tablet Strength ([1]; compression pressure 70.2 MPa): 2 | Tablet Strength ([1]; compression pressure 105 MPa): 2 | Disintegration Characteristics [2, 3]: Instant disintegration | Disintegration Characteristics [2, 5]: Instant disintegration | Disintegration Characteristics [2, 4]: Instant disintegration | Disintegration (screening summary) [2, 6]: fast disintegration

OC[C@H]1O[C@@](CO)(O[C@H]2O[C@H](CO)[C@@H](O)[C@H](O)[C@H]2O)[C@@H](O)[C@@H]1O [Sucrose]
Tablet Strength ([1]; compression pressure 70.2 MPa): 2 | Tablet Strength ([1]; compression pressure 91.3 MPa): 2 | Disintegration Characteristics ([2]; compression pressure 91.3 MPa, 5 mL water, 30 seconds): No improvement.

Cn1c(=O)c2[nH]cnc2n(C)c1=O [Theophyline, reference compound]
Disintegration Characteristics [2, 3]: No disintegration. | Disintegration Characteristics [2, 5]: No disintegration. | Disintegration Characteristics [2, 4]: No disintegration.

CC(=O)[O-].CC(=O)[O-].[Zn+2] [Zinc Acetate]
Tablet Strength [1]: 3 | Disintegration Characteristics [2]: No disintegration.

Calcium Gluconate
Tablet Strength ([1]; compression pressure 35.1 MPa): 4
